Data as given in patent US20120064180A1, “USE OF NO AND NO DONORS FOR TERMINATING DORMANCY IN INVERTEBRATES” (UNIVERSITEIT GENT, priority 2009, published 2012).

What was measured:
[1] = test system: diapaused pupae of Heliothis virescens; conditions: 30 min dip
Procedure: The larval stages of the tobacco budworm Heliothis virescens (Lepidoptera: Noctuidae) were reared on an artificial diet at standard conditions of 25° C. and long light conditions with 14 h light (Smagghe G et al., 1994). To produce nondiapause pupae, the larvae were kept at these conditions throughout development, whereas for pupal diapause induction, third instar larvae were transferred to 18° C. and short light conditions of 8 h light. The pupal stemma were examined to check the diapause status as described (Philips J R et al., 1966).
The treatment was done in capped plastic Falcon tubes of 10 ml. Controls were dipped in distilled water. After treatment, pupae were put in 9-cm Petri dishes, lined with a filter paper and kept at 25° C. and 14 h light, and development of adults was scored at daily intervals. Per treatment, 20 pupae were tested. Means±SD were compared to controls with a Student's t-test.

[2] = test system: eggs with diapaused embryos of Bombyx mori; assay: Termination of embryonic diapause in eggs dipped in NO donor or HCl; assay type: in vivo; conditions: SpermineNONOate 1 mM 30 min dip; 20% HCl 5 min 48° C.
Procedure: All experiments were carried out on silkmoth strain Bombyx mori J106 (Lepidoptera: Bombycidae). Larvae were maintained on an artificial diet (Yakuruto Co.) under standard conditions of 25° C., 65% relevant humidity and 16 h light ([…] et al., 2003). Egg batches were collected from a continuous insect colony and used for the experiments. […] The latter treatment is the normally used procedure to break diapause in eggs with diapaused embryos for maintenance of the insect colony of B. mori ([…] et al., 2003). In a water-control, eggs with diapaused embryos were dipped in distilled water only, and in a blank-control, eggs with diapaused were not treated. […] The numbers of eggs with diapaused embryos per treatment (n) are given with the results.

[3] = test system: Bolshoye Yarovoye Artemia cysts (ARC BY 1706); assay: Post-diapause development of Bolshoye Yarovoye strain encysted Artemia embryos with NO donors; assay type: in vivo
Procedure: Encysted embryos (cysts) from a parthenogenetic strain of Artemia obtained in winter 2005-2006 in Bolshoye Yarovoye (Altay Region: 52° 51′64″ N-78° 37′32″ E), Russia (Artemia Reference Center (ARC) code number BY 1706), were stored in the dark at 4° C. in dry sealed bags. For the experiment, the cysts were grown at 26-28° C. with constant illumination in 25 ml of sea water under varying experimental conditions as detailed below.
To quantify larval (nauplii) emergence and hatching (FIG. 1) which served as measures of cyst development, 6 samples of 250 μl from each 50 ml tube were mixed individually with 250 μl of sea water and 2 drops of Lugol's solution (Van Stappen, G, 1996) prior to counting nauplii (N) and umbrella (U) with the aid of a dissecting microscope. […] The extent of development was determined as the percent of developed cysts which was calculated as either the number of hatched larvae, or the number of hatched and emerged larvae, obtained from 100 cysts, the latter represented by the sum of hatched nauplii (larvae), emerged larvae and undeveloped cysts containing embryos.
The hatching percentage (H %) was calculated according to: […]
The hatching percentage plus (H^+%) was calculated according to: […]
The percent of developed cysts was calculated as described above.

“N-[4-[1-(3-aminopropyl)-2-hydroxy-2-nitrosohydrazinobutyl]-1,3-propane diamine [Spermine NONOate]” was tested, and the “time to develop into the adult stage” value ([1]; 1000 μM, control 9.17±0.75 d, p=0.01) was 7.60 ± 0.89 days, the “time to adult stage versus controls” value ([1]; 10 and 100 μM) was “similar” and the “Number of developed neonates at day 6” value [2] was 28. The “Number of developed neonates at day 7” value [2] was 22, the “Number of developed neonates at day 8” value [2] was 10 and the “Number of developed neonates at day 14” value [2] was 0. For the same substance, the “Number of undeveloped eggs at day 14” value [2] was 10, the “eggs developed into neonate larvae at 6-8 days after treatment (total)” value [2] was 86% and the “percentage of developed neonates at day 14” value [2] was “(0%)”. The “hatching after 24 hours” value ([3]; 40 and 60 μM, 24 hours, overcome by 48 hr) was “less dramatic, but obvious” and the “concentration at which NO donor was most effective on cyst development” value ([3]; Bolshoye Yarovoye cysts, FIG. 2A-F) was 4.0 µM.
